Tests used:
Test in all cases: relative viability (nuclei count vs DMSO), 5 days (fraction); higher = more cells survive
[1] = compound: Cc1ccc2nc(NCCN)c3ncc(C)n3c2c1
Outline: (§1)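 Lung cancer cell lines in 1536-well plates were exposed by pinning to five library-drug doses (not always all listed) √10 apart, following an overnight hold at 37 °C. MetaXpress counted Hoechst-stained nuclei from 4× images taken after 5 days without medium change. Viability is the median ratio of treated-well to vehicle-well nuclei across plates. Plates required control CV below 25% and at least one doubling.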

Salubrinal = compound: O=C(/C=C/c1ccccc1)NC(NC(=S)Nc1cccc2cccnc12)C(Cl)(Cl)Cl [Salubrinal]
Outline: as §1

[2] = compound: Cc1ccc2nc(NCCN)c3ncc(C)n3c2c1 + Cc1nc(NC(=O)N2CCC[C@H]2C(N)=O)sc1-c1ccnc(C(C)(C)C(F)(F)F)c1 [Alpelisib] (partner 2 µM)
Outline: (§2)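 Nuclei were stained with Hoechst during a one-step fixation (final 0.05% Triton X-100, 1% formaldehyde, 1 ug/ml Hoechst) carried out 5 days after dosing, then counted on 4× images. The cells, lung cancer lines in 1536-well plates, had been dosed by pin tool the day after seeding with one drug alone or a fixed anchor-drug dose plus five library-drug doses (not always all listed) in √10 steps. Relative viability is the nuclei count in treated wells divided by that in vehicle wells, and each value is the median of duplicate plates.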

Salubrinal + Pemetrexed = compound: O=C(/C=C/c1ccccc1)NC(NC(=S)Nc1cccc2cccnc12)C(Cl)(Cl)Cl [Salubrinal] + Nc1nc2[nH]cc(CCc3ccc(C(=O)N[C@@H](CCC(=O)O)C(=O)O)cc3)c2c(=O)[nH]1 [Pemetrexed] (partner 0.2 µM)
Outline: as §2

NCI-H2087
relative viability ([1]; 0.04 µM): 1.13
relative viability ([1]; 0.1265 µM): 1.15
relative viability ([1]; 0.4 µM): 0.861
relative viability ([1]; 1.265 µM): 0.997
relative viability ([1]; 4 µM): 0.953
relative viability (Salubrinal; 0.08 µM): 1.16
relative viability (Salubrinal; 0.253 µM): 0.931
relative viability (Salubrinal; 0.8 µM): 1.07
relative viability (Salubrinal; 2.53 µM): 0.989
relative viability (Salubrinal; 8 µM): 0.968
relative viability ([2]; first compound 0.04 µM): 1.07
relative viability ([2]; first compound 0.1265 µM): 1.15
relative viability ([2]; first compound 0.4 µM): 0.998
relative viability ([2]; first compound 1.265 µM): 0.963
relative viability ([2]; first compound 4 µM): 0.998
relative viability (Salubrinal + Pemetrexed; first compound 0.08 µM): 0.649
relative viability (Salubrinal + Pemetrexed; first compound 0.253 µM): 0.532
relative viability (Salubrinal + Pemetrexed; first compound 0.8 µM): 0.699
relative viability (Salubrinal + Pemetrexed; first compound 2.53 µM): 0.644
relative viability (Salubrinal + Pemetrexed; first compound 8 µM): 0.63

HCC-366
relative viability ([1]; 0.04 µM): 1.03
relative viability ([1]; 0.1265 µM): 1.04
relative viability ([1]; 0.4 µM): 1.05
relative viability ([1]; 1.265 µM): 0.98
relative viability ([1]; 4 µM): 0.992
relative viability (Salubrinal; 0.08 µM): 1.09
relative viability (Salubrinal; 0.253 µM): 0.915
relative viability (Salubrinal; 0.8 µM): 1.04
relative viability (Salubrinal; 2.53 µM): 1.01
relative viability (Salubrinal; 8 µM): 1.04
relative viability ([2]; first compound 0.04 µM): 0.552
relative viability ([2]; first compound 0.1265 µM): 0.329
relative viability ([2]; first compound 0.4 µM): 0.455
relative viability ([2]; first compound 1.265 µM): 0.433
relative viability ([2]; first compound 4 µM): 0.276
relative viability (Salubrinal + Pemetrexed; first compound 0.08 µM): 0.194
relative viability (Salubrinal + Pemetrexed; first compound 0.8 µM): 0.165
relative viability (Salubrinal + Pemetrexed; first compound 2.53 µM): 0.153
relative viability (Salubrinal + Pemetrexed; first compound 8 µM): 0.161

LU99A
relative viability ([1]; 0.04 µM): 1.07
relative viability ([1]; 0.1265 µM): 0.904
relative viability ([1]; 0.4 µM): 0.986
relative viability ([1]; 1.265 µM): 0.961
relative viability ([1]; 4 µM): 0.839
relative viability (Salubrinal; 0.08 µM): 1.07
relative viability (Salubrinal; 0.253 µM): 0.862
relative viability (Salubrinal; 0.8 µM): 1.03
relative viability (Salubrinal; 2.53 µM): 0.9
relative viability (Salubrinal; 8 µM): 0.898
relative viability ([2]; first compound 0.04 µM): 0.59
relative viability ([2]; first compound 0.1265 µM): 0.539
relative viability ([2]; first compound 0.4 µM): 0.576
relative viability ([2]; first compound 1.265 µM): 0.609
relative viability ([2]; first compound 4 µM): 0.464
relative viability (Salubrinal + Pemetrexed; first compound 0.08 µM): 0.176
relative viability (Salubrinal + Pemetrexed; first compound 0.253 µM): 0.205
relative viability (Salubrinal + Pemetrexed; first compound 0.8 µM): 0.265
relative viability (Salubrinal + Pemetrexed; first compound 2.53 µM): 0.265
relative viability (Salubrinal + Pemetrexed; first compound 8 µM): 0.185

NCI-H647
relative viability ([1]; 0.04 µM): 1.13
relative viability ([1]; 0.1265 µM): 0.993
relative viability ([1]; 0.4 µM): 0.934
relative viability ([1]; 1.265 µM): 0.865
relative viability ([1]; 4 µM): 0.741
relative viability (Salubrinal; 0.08 µM): 1.18
relative viability (Salubrinal; 0.253 µM): 0.98
relative viability (Salubrinal; 0.8 µM): 1.11
relative viability (Salubrinal; 2.53 µM): 0.964
relative viability (Salubrinal; 8 µM): 0.884
relative viability ([2]; first compound 0.04 µM): 1.05
relative viability ([2]; first compound 0.1265 µM): 1.01
relative viability ([2]; first compound 0.4 µM): 1.06
relative viability ([2]; first compound 1.265 µM): 1.26
relative viability ([2]; first compound 4 µM): 1
relative viability (Salubrinal + Pemetrexed; first compound 0.08 µM): 0.199
relative viability (Salubrinal + Pemetrexed; first compound 0.253 µM): 0.174
relative viability (Salubrinal + Pemetrexed; first compound 0.8 µM): 0.184
relative viability (Salubrinal + Pemetrexed; first compound 2.53 µM): 0.196
relative viability (Salubrinal + Pemetrexed; first compound 8 µM): 0.147

HCC-78
relative viability ([1]; 0.04 µM): 1.08
relative viability ([1]; 0.1265 µM): 0.979
relative viability ([1]; 0.4 µM): 0.919
relative viability ([1]; 1.265 µM): 0.943
relative viability ([1]; 4 µM): 0.826
relative viability (Salubrinal; 0.08 µM): 1.03
relative viability (Salubrinal; 0.253 µM): 0.937
relative viability (Salubrinal; 0.8 µM): 1.27
relative viability (Salubrinal; 2.53 µM): 0.949
relative viability (Salubrinal; 8 µM): 0.891
relative viability ([2]; first compound 0.04 µM): 0.338
relative viability ([2]; first compound 0.1265 µM): 0.337
relative viability ([2]; first compound 0.4 µM): 0.288
relative viability ([2]; first compound 1.265 µM): 0.309
relative viability ([2]; first compound 4 µM): 0.308
relative viability (Salubrinal + Pemetrexed; first compound 0.08 µM): 0.928
relative viability (Salubrinal + Pemetrexed; first compound 0.253 µM): 0.837
relative viability (Salubrinal + Pemetrexed; first compound 0.8 µM): 0.971
relative viability (Salubrinal + Pemetrexed; first compound 2.53 µM): 0.918
relative viability (Salubrinal + Pemetrexed; first compound 8 µM): 0.899

NCI-H1755
relative viability ([1]; 0.04 µM): 1.07
relative viability ([1]; 0.1265 µM): 0.979
relative viability ([1]; 0.4 µM): 0.964
relative viability ([1]; 1.265 µM): 0.992
relative viability ([1]; 4 µM): 0.962
relative viability (Salubrinal; 0.08 µM): 1.07
relative viability (Salubrinal; 0.253 µM): 1.04
relative viability (Salubrinal; 0.8 µM): 1.06
relative viability (Salubrinal; 2.53 µM): 0.959
relative viability (Salubrinal; 8 µM): 0.968
relative viability ([2]; first compound 0.04 µM): 0.978
relative viability ([2]; first compound 0.1265 µM): 0.928
relative viability ([2]; first compound 0.4 µM): 0.898
relative viability ([2]; first compound 1.265 µM): 0.962
relative viability ([2]; first compound 4 µM): 0.908
relative viability (Salubrinal + Pemetrexed; first compound 0.08 µM): 0.379
relative viability (Salubrinal + Pemetrexed; first compound 0.253 µM): 0.513
relative viability (Salubrinal + Pemetrexed; first compound 0.8 µM): 0.401
relative viability (Salubrinal + Pemetrexed; first compound 2.53 µM): 0.638
relative viability (Salubrinal + Pemetrexed; first compound 8 µM): 0.395

NCI-H3122
relative viability ([1]; 0.04 µM): 0.998
relative viability ([1]; 0.1265 µM): 0.988
relative viability ([1]; 0.4 µM): 0.999
relative viability ([1]; 1.265 µM): 1.06
relative viability ([1]; 4 µM): 1.01
relative viability (Salubrinal; 0.08 µM): 1.08
relative viability (Salubrinal; 0.253 µM): 1
relative viability (Salubrinal; 0.8 µM): 1.09
relative viability (Salubrinal; 2.53 µM): 1.05
relative viability (Salubrinal; 8 µM): 1.01
relative viability ([2]; first compound 0.04 µM): 0.88
relative viability ([2]; first compound 0.1265 µM): 0.942
relative viability ([2]; first compound 0.4 µM): 0.812
relative viability ([2]; first compound 1.265 µM): 0.779
relative viability ([2]; first compound 4 µM): 0.855
relative viability (Salubrinal + Pemetrexed; first compound 0.08 µM): 0.198
relative viability (Salubrinal + Pemetrexed; first compound 0.253 µM): 0.181
relative viability (Salubrinal + Pemetrexed; first compound 0.8 µM): 0.204
relative viability (Salubrinal + Pemetrexed; first compound 2.53 µM): 0.198
relative viability (Salubrinal + Pemetrexed; first compound 8 µM): 0.195

NCI-H358
relative viability ([1]; 0.04 µM): 0.988
relative viability ([1]; 0.1265 µM): 1.01
relative viability ([1]; 0.4 µM): 0.933
relative viability ([1]; 1.265 µM): 1.07
relative viability ([1]; 4 µM): 0.919
relative viability (Salubrinal; 0.08 µM): 1.06
relative viability (Salubrinal; 0.253 µM): 1.02
relative viability (Salubrinal; 0.8 µM): 1.09
relative viability (Salubrinal; 2.53 µM): 0.908
relative viability (Salubrinal; 8 µM): 0.795
relative viability ([2]; first compound 0.04 µM): 0.844
relative viability ([2]; first compound 0.1265 µM): 0.835
relative viability ([2]; first compound 0.4 µM): 0.902
relative viability ([2]; first compound 1.265 µM): 0.952
relative viability ([2]; first compound 4 µM): 0.626
relative viability (Salubrinal + Pemetrexed; first compound 0.08 µM): 0.181
relative viability (Salubrinal + Pemetrexed; first compound 0.253 µM): 0.176
relative viability (Salubrinal + Pemetrexed; first compound 0.8 µM): 0.157
relative viability (Salubrinal + Pemetrexed; first compound 2.53 µM): 0.153
relative viability (Salubrinal + Pemetrexed; first compound 8 µM): 0.168

Source: the supplement of paper PMC10307832
